Reference: patent publication US9573978B2, “Cyclosporin derivatives for the treatment and prevention of a viral infection” (priority 2010, dated 2017)
pIC50: −log10 of the molar value. Starred links: 1 amine or outer side, 2 acyl side, 3 side chain; linkers in the order of their positions; H or OH if unused. Non-standard residues stand in square brackets, D forms with d. Residues, ends and D or L forms follow the SMILES beside them. ξ: configuration not given here. NMe(dihydroBmt) = CCCC[C@@H](C)[C@@H](O)[C@H](NC)C(=O)O; MeBmt = C/C=C/C[C@@H](C)[C@@H](O)[C@H](NC)C(=O)O; X2 = CN([C@H](SCCCN1CCOCC1)C(=O)[*:2])[*:1]; NMeLeu(4-OMe) = CN[C@@H](CC(C)(C)OC)C(=O)O; X4 = CCN(CC)CCS[C@@H](C(=O)[*:2])N(C)[*:1]; X1 = CCN(CC)CCS[C@H](C(=O)[*:2])N(C)[*:1]; X5 = CC=CCC(C)C(O)C(C(=O)[*:2])N(C)[*:1]; X7 = C=CCOC(C)(C)CC(C(=O)[*:2])N(C)[*:1]; X6 = CN(C(SCCCN1CCOCC1)C(=O)[*:2])[*:1]; NMeIle(3ξ) = CCC(C)[C@H](NC)C(=O)O; NMeL = CN[CH](CC(C)C)C(=O)O; NMeV = CN[CH](C(=O)O)C(C)C; Abu = CC[CH](N)C(=O)O

system: HCV replicon in Huh7 human hepatoma cell line ET (luc-ubi-neo/ET); assay: HCV subgenomic replicon assay, luciferase end point, cell line ET (luc-ubi-neo/ET); format: cell-based, Hepatitis C virus; conditions: HCV replicon-derived luciferase activity; read-out: Antiviral activity IC50
Experimental: The anti-HCV activity of cyclosporine derivatives were evaluated in the HCV subgenomic replicon assay. The assay use the cell line ET (luc-ubi-neo/ET), which is a Huh7 human hepatoma cell line harboring an HCV replicon with a stable luciferase (Luc) reporter. HCV RNA replication was assessed by quantifying HCV replicon-derived luciferase activity. The antiviral activity of cyclosporine analogs were evaluated after drug treatment, the EC 50 and EC 90 were determined in subsequent assessments by using the luciferase end point (Krieger, N., et al., 2001, J. Virol. 75, 4614-4624; Pietschmann, T., et al., 2002, J. Virol. 76, 4008-4021; each of which is incorporated herein by reference).

Compound	pIC50
C=CCOC(C)(C)CC1C(=O)NC(C(C)C)C(=O)N(C)C(CC(C)C)C(=O)NC(C)C(=O)NC(C)C(=O)N(C)C(CC(C)C)C(=O)N(C)C(CC(C)C)C(=O)N(C)C(C(C)C)C(=O)N(C)C(C(O)C(C)CC=CC)C(=O)NC(CC)C(=O)N(C)C(SCCCN2CCOCC2)C(=O)N1C [Example 26, [(R)-3-(N-Morphlino)propylthio-Sar]-3-[(γ-Allyloxy)-NMeLeu]-4-cyclosporin] (cyclo([X5][Abu][X6][X7]V[NMeL]AA[NMeL][NMeL][NMeV]); configuration not given here)	7.10
[(S)-2-(N,N-Diethylamino)ethylthio-Sar]-3-[NMeIle]-4-cyclosporin	5.73
C/C=C/C[C@@H](C)[C@@H](O)[C@H]1C(=O)N[C@@H](CC)C(=O)N(C)[C@H](SCCN(CC)CC)C(=O)N(C)[C@@H](C(C)C)C(=O)N[C@@H](C(C)C)C(=O)N(C)[C@@H](CC(C)C)C(=O)N[C@@H](C)C(=O)N[C@H](C)C(=O)N(C)[C@@H](CC(C)C)C(=O)N(C)[C@@H](CC(C)C)C(=O)N(C)[C@@H](C(C)C)C(=O)N1C [[(R)-2-(N,N-Diethylamino)ethylthio-Sar]-3-[NMeVal]-4-cyclosporin] (cyclo(A[dA][NMeL][NMeL][NMeV][MeBmt][Abu][X1][NMeV]V[NMeL]))	7.40
C/C=C/C[C@@H](C)[C@@H](O)[C@H]1C(=O)N[C@@H](CC)C(=O)N(C)[C@@H](SCCN(CC)CC)C(=O)N(C)[C@@H](C(C)C)C(=O)N[C@@H](C(C)C)C(=O)N(C)[C@@H](CC(C)C)C(=O)N[C@@H](C)C(=O)N[C@H](C)C(=O)N(C)[C@@H](CC(C)C)C(=O)N(C)[C@@H](CC(C)C)C(=O)N(C)[C@@H](C(C)C)C(=O)N1C [[(S)-2-(N,N-Diethylamino)ethylthio-Sar]-3-[NMeVal]-4-cyclosporin] (cyclo(A[dA][NMeL][NMeL][NMeV][MeBmt][Abu][X4][NMeV]V[NMeL]))	5.44
C/C=C/C[C@@H](C)[C@@H](O)[C@H]1C(=O)N[C@@H](CC)C(=O)N(C)CC(=O)N(C)[C@@H](C(C)C)C(=O)N[C@@H](C(C)C)C(=O)N(C)[C@@H](CC(C)C)C(=O)N[C@@H](C)C(=O)N[C@H](C)C(=O)N(C)[C@@H](CC(C)C)C(=O)N(C)[C@@H](CC(C)C)C(=O)N(C)[C@@H](C(C)C)C(=O)N1C [SDZ-220-384, N-MeVal-4-Cyclosporin]	6.77

same assay, conditions: Hepatitis C virus, Huh-7, read-out: Antiviral activity IC50

Compound	pIC50
C/C=C/C[C@@H](C)[C@@H](O)[C@H]1C(=O)N[C@@H](CC)C(=O)N(C)[C@H](SCCCN2CCOCC2)C(=O)N(C)[C@@H](CC(C)(C)OC)C(=O)N[C@@H](C(C)C)C(=O)N(C)[C@@H](CC(C)C)C(=O)N[C@@H](C)C(=O)N[C@H](C)C(=O)N(C)[C@@H](CC(C)C)C(=O)N(C)[C@@H](CC(C)C)C(=O)N(C)[C@@H](C(C)C)C(=O)N1C [Example 12, [(R)-3-(N-Morphlino)propylthio-Sar]-3-[(γ-Methoxy)-NMeLeu]-4-cyclosporin]	7.22
C/C=C/C[C@@H](C)[C@@H](O)[C@H]1C(=O)N[C@@H](CC)C(=O)N(C)CC(=O)N(C)[C@@H]([C@@H](C)CC)C(=O)N[C@@H](C(C)C)C(=O)N(C)[C@@H](CC(C)C)C(=O)N[C@@H](C)C(=O)N[C@H](C)C(=O)N(C)[C@@H](CC(C)C)C(=O)N(C)[C@@H](CC(C)C)C(=O)N(C)[C@@H](C(C)C)C(=O)N1C [SDZ-NIM-811, N-MeIle-4-Cyclosporin]	6.82
CCCC[C@@H](C)[C@@H](O)[C@H]1C(=O)N[C@@H](CC)C(=O)N(C)[C@H](SCCCN2CCOCC2)C(=O)N(C)[C@@H](CC(C)(C)OC)C(=O)N[C@@H](C(C)C)C(=O)N(C)[C@@H](CC(C)C)C(=O)N[C@@H](C)C(=O)N[C@H](C)C(=O)N(C)[C@@H](CC(C)C)C(=O)N(C)[C@@H](CC(C)C)C(=O)N(C)[C@@H](C(C)C)C(=O)N1C [Example 10, [(R)-3-(N-Morphlino)propylthio-Sar]-3-[(γ-Methoxy)-NMeLeu]-4-Dihydrocyclosporin] (cyclo(A[dA][NMeL][NMeL][NMeV][NMe(dihydroBmt)][Abu][X2][NMeLeu(4-OMe)]V[NMeL]))	7.05
C/C=C/C[C@@H](C)[C@@H](O)[C@H]1C(=O)N[C@@H](CC)C(=O)N(C)[C@H](SCCN(CC)CC)C(=O)N(C)[C@@H](C(C)CC)C(=O)N[C@@H](C(C)C)C(=O)N(C)[C@@H](CC(C)C)C(=O)N[C@@H](C)C(=O)N[C@H](C)C(=O)N(C)[C@@H](CC(C)C)C(=O)N(C)[C@@H](CC(C)C)C(=O)N(C)[C@@H](C(C)C)C(=O)N1C (stereo partly drawn) [[(R)-2-(N,N-Diethylamino)ethylthio-Sar]-3-[NMeIle]-4-cyclosporin] (cyclo(A[dA][NMeL][NMeL][NMeV][MeBmt][Abu][X1][NMeIle(3ξ)]V[NMeL]))	7.40
C/C=C/C[C@@H](C)[C@@H](O)[C@H]1C(=O)N[C@@H](CC)C(=O)N(C)[C@H](SCCCN(CC)CC)C(=O)N(C)[C@@H](CC(C)(C)O)C(=O)N[C@@H](C(C)C)C(=O)N(C)[C@@H](CC(C)C)C(=O)N[C@@H](C)C(=O)N[C@H](C)C(=O)N(C)[C@@H](CC(C)C)C(=O)N(C)[C@@H](CC(C)C)C(=O)N(C)[C@@H](C(C)C)C(=O)N1C [Example 2, [(R)-3-(N,N-Diethylamino)propylthio-Sar]-3-[(γ-Hydroxy)-NMeLeu]-4-cyclosporin]	7.15
C/C=C/C[C@@H](C)[C@@H](O)[C@H]1C(=O)N[C@@H](CC)C(=O)N(C)[C@H](SCCCN2CCOCC2)C(=O)N(C)[C@@H](CC(C)(C)O)C(=O)N[C@@H](C(C)C)C(=O)N(C)[C@@H](CC(C)C)C(=O)N[C@@H](C)C(=O)N[C@H](C)C(=O)N(C)[C@@H](CC(C)C)C(=O)N(C)[C@@H](CC(C)C)C(=O)N(C)[C@@H](C(C)C)C(=O)N1C [Example 1, [(R)-3-(N-Morphlino)propylthio-Sar]-3-[(γ-Hydroxy)-NMeLeu]-4-cyclosporin]	7.40
